Where “and” joins values, the source holds several entries; their conditions need not be identical. Equal entries are not always repeated. Numbers after ± are expanded uncertainties. One block for each molecule: values may come before it.
Experiment: wn = mass fraction of the nth substance listed
Settings: 101 kPa, Liquid, Vibrating tube method

mass density (303.15 K, w1 = 0.158): 1037.8 ± 1 kg/m3 and 1038 ± 1 kg/m3
mass density (313.15 K, w1 = 0.187): 1042.8 ± 1.1 kg/m3
Structure (SMILES): O=C(O)c1ccccc1C(=O)O [1,2-benzenedicarboxylic acid] + CN1CCCC1=O

mass density (303.15 K, w1 = 0.05896): 1029.5 ± 1 kg/m3
mass density (313.15 K, w1 = 0.08754): 1031.5 ± 1 kg/m3 and 1038.5 ± 1 kg/m3
Structure (SMILES): O=C(O)c1ccc(C(=O)O)cc1 [1,4-benzenedicarboxylic acid] + CN1CCCC1=O

mass density (303.15 K, w1 = 0.1624): 1036.1 ± 1 kg/m3
mass density (313.15 K, w1 = 0.1957): 1038.5 ± 7.6 kg/m3
Structure (SMILES): O=C(O)c1cccc(C(=O)O)c1 [1,3-benzenedicarboxylic acid] + CN1CCCC1=O
